Counter-ions that a name gives are not always drawn.
Legend:
5-HT2B receptor = 5-HT2B receptor (Homo sapiens, UniProt P41595); experiment: Affinity for 5HT2 receptor binding sites, h5-HT2B, [3H]mesulergine; conditions: CHO h5-HT2B membranes
Procedure: (§1) Sigmoidal inhibition curves were generated and fitted by nonlinear regression analysis (GraphPad Prism).
(§2) Receptor binding was performed using the human recombinant 5-HT2A (GB: X57830), 5-HT2B (GB: Z36748) and 5-HT2C (GB: M81778) receptors. The affinity of the compounds for the 3 different human 5-HT2 receptor subtypes was evaluated by competitive radioligand binding assays using [^3H]ketanserin (h5-HT2A) or [^3H]mesulergine (h5-HT2B and h5-HT2C). The assays were performed on membranes prepared from NIH3T3 stably transfected with h5-HT2A or CHO stably transfected with h5-HT2B and h5-HT2C.

[1] = target: T1, human recombinant 5-HT2C receptor (Homo sapiens, UniProt P28335); experiment: Affinity for 5HT2 receptor binding sites, h5-HT2C, [3H]mesulergine; conditions: CHO h5-HT2C membranes
T1 sequence (P28335 33-458): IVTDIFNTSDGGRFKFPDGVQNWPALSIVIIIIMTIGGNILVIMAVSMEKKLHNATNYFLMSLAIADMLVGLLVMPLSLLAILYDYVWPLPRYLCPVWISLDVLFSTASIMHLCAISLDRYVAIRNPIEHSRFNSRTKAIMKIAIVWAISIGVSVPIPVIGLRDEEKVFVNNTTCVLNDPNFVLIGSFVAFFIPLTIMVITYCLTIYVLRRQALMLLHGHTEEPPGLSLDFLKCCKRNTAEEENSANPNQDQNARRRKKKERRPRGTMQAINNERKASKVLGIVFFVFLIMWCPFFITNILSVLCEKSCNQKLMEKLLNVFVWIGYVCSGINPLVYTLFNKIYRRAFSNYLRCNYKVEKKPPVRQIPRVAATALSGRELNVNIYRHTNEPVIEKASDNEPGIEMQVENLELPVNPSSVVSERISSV
Procedure: as §1, §2

5-HT2A receptor = 5-HT2A receptor (Homo sapiens, UniProt P28223); experiment: Affinity for 5-HT2A receptor binding sites, radioligand binding with [3H]ketanserin; conditions: read-out: Ki 5-HT2A, rat cortex membranes (assay 2) or NIH3T3 h5-HT2A membranes (assay 3), table does not say which
rat 5-HT7a receptor = rat 5-HT7a receptor (Rattus norvegicus, UniProt P32305); experiment: Affinity for 5-HT7 receptor binding sites, radioligand binding with [3H]5-CT; conditions: membranes of HEK-293 cells with rat 5-HT7a, 1 nM [3H]5-CT
Procedure: The affinity of the compounds described in this invention for the 5-HT7 receptor binding site was evaluated by single competition radioligand binding assay. The assay was performed on membranes prepared from HEK-293 cells that had been subjected to stable transfection with the rat 5-HT7a receptor (GB: NM022938). Cells were scraped from the culture plates, suspended in Tris-HCl 50 mM pH 7.5 and collected through centrifugation (1000 rpm for 5 min). The cell pellets were homogenized (Polytron, 15 s, setting 5) in 50 mM Tris-HCl (pH 7.5), 5 mM EDTA. Following centrifugation (15,000 rpm for 25 min), membranes (135 μg protein/mL) were resuspended in the same buffer and incubated for 60 min at RT with 1 nM [^3H]5-CT in the presence of increasing concentration of test compounds. Nonspecific binding was defined in the presence of 10 μM 5-HT. Incubation was stopped by rapid filtration using the cell harvester (Packard). Radioactivity was counted in a TopCount-NXT (Packard). Experiments were conducted in triplicate.

Chain of 5-HT2B receptor (P41595 whole entry): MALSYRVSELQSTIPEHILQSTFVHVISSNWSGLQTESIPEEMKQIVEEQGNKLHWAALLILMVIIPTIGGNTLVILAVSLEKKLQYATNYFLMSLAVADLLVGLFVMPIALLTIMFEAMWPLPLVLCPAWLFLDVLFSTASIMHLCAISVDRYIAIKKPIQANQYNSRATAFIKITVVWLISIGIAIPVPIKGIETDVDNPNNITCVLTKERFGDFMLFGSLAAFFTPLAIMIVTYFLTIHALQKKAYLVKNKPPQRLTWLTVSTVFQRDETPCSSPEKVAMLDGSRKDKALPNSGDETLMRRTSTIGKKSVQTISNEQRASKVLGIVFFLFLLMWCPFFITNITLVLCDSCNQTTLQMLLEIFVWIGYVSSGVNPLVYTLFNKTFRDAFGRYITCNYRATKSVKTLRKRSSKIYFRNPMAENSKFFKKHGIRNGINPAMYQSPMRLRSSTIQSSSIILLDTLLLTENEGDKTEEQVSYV
Chain of rat 5-HT7a receptor (P32305 whole entry): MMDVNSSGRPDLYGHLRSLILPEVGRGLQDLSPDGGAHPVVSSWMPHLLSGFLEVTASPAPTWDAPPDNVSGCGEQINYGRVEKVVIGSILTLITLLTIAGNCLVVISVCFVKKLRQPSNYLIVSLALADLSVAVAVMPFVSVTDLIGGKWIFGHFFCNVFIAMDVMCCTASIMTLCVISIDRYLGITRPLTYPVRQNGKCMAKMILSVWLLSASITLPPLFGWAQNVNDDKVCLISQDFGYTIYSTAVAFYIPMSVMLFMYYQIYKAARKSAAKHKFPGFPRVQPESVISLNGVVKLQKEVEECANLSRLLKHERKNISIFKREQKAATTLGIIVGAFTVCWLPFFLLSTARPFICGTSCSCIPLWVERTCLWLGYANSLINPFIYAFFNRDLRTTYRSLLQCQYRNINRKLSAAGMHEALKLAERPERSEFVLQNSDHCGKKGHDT

Compound	Ki (5-HT2B receptor) [nM]	Ki [1] [nM]	Ki (5-HT2A receptor) [nM]	Ki (rat 5-HT7a receptor) [nM]
CC(C)(C)c1nc2c(c(-c3ccc(F)cc3)n1)CNCC2 [Example 1, 2-tert-Butyl-4-(4-fluoro-phenyl)-5,6,7,8-tetrahydro-pyrido[4,3-d]pyrimidine]	70	90	4	540
Fc1ccc(-c2nc(Cc3ccccc3)nc3c2CNCC3)cc1 [Example 2, 2-Benzyl-4-(4-fluoro-phenyl)-5,6,7,8-tetrahydro-pyrido[4,3-d]pyrimidine]	5000	510	20	> 10000
CCC(C)c1nc2c(c(-c3ccc(C)cc3)n1)CNCC2 (centres unmarked) [Example 4, 2-sec-Butyl-4-p-tolyl-5,6,7,8-tetrahydro-pyrido[4,3-d]pyrimidine hydrochloride]	250	200	20	> 10000
Fc1ccc(-c2nc(C3CCC3)nc3c2CNCC3)cc1 [Example 5, 2-Cyclobutyl-4-(4-fluoro-phenyl)-5,6,7,8-tetrahydro-pyrido[4,3-d]pyrimidine hydrochloride]	350	250	13	> 10000
Cc1ccc(-c2nc(C3CCC3)nc3c2CNCC3)cc1 [Example 6, 2-Cyclobutyl-4-p-tolyl-5,6,7,8-tetrahydro-pyrido[4,3-d]pyrimidine]	200	300	50	> 10000
Fc1ccc(-c2nc(C3CC3)nc3c2CNCC3)cc1 [Example 7, 2-Cyclopropyl-4-(4-fluoro-phenyl)-5,6,7,8-tetrahydro-pyrido[4,3-d]pyrimidine]		900	25	> 10000
FC(F)(F)c1ccc(-c2nc(Cc3ccccc3)nc3c2CNCC3)cc1 [Example 9, 2-Benzyl-4-(4-trifluoromethyl-phenyl)-5,6,7,8-tetrahydro-pyrido[4,3-d]pyrimidine]	> 10000	7500	1350	5000
Fc1ccc(-c2nc(Cc3ccccc3)nc3c2CNCC3)cc1F [Example 10, 2-Benzyl-4-(3,4-difluoro-phenyl)-5,6,7,8-tetrahydro-pyrido[4,3-d]pyrimidine]	> 10000	5000	200	> 10000
c1ccc(Cc2nc3c(c(-c4ccccc4)n2)CNCC3)cc1 [Example 11, 2-Benzyl-4-phenyl-5,6,7,8-tetrahydro-pyrido[4,3-d]pyrimidine]	> 10000	2000	100	> 10000
Fc1cccc(-c2nc(Cc3ccccc3)nc3c2CNCC3)c1 [Example 12, 2-Benzyl-4-(3-fluoro-phenyl)-5,6,7,8-tetrahydro-pyrido[4,3-d]pyrimidine]	> 10000	5000	300	> 10000
CN1CCc2nc(Cc3ccc(F)cc3)nc(-c3ccc(F)cc3)c2C1 [Example 14, 2-(4-Fluoro-benzyl)-4-(4-fluoro-phenyl)-6-methyl-5,6,7,8-tetrahydro-pyrido[4,3-d]pyrimidine]	4000	4000	30	> 10000
CN1CCc2nc(Cc3ccc(F)cc3)nc(-c3ccc(C#N)cc3)c2C1 [Example 15, 4-[2-(4-Fluoro-benzyl)-6-methyl-5,6,7,8-tetrahydro-pyrido[4,3-d]pyrimidin-4-yl]-benzonitrile]	> 10000	> 10000	1000	> 10000
N#Cc1ccc(-c2nc(Cc3ccc(F)cc3)nc3c2CNCC3)cc1 [Example 16, 4-[2-(4-Fluoro-benzyl)-5,6,7,8-tetrahydro-pyrido[4,3-d]pyrimidin-4-yl]-benzonitrile]	> 10000	> 10000	2000	> 10000
COc1ccc(-c2nc(C3CCCC3)nc3c2CNCC3)cc1 [Example 19, 2-Cyclopentyl-4-(4-methoxy-phenyl)-5,6,7,8-tetrahydro-pyrido[4,3-d]pyrimidine]	140	200	100	> 10000
N#Cc1ccc(-c2nc(C3CCCC3)nc3c2CNCC3)cc1 [Example 20, 4-(2-Cyclopentyl-5,6,7,8-tetrahydro-pyrido[4,3-d]pyrimidin-4-yl)-benzonitrile]	1200	> 10000	700	> 10000
CC(C)c1nc2c(c(-c3ccc(F)cc3)n1)CN(C)CC2 [Example 22, 4-(4-Fluoro-phenyl)-2-isopropyl-6-methyl-5,6,7,8-tetrahydro-pyrido[4,3-d]pyrimidine]	500	1300	32	> 10000
CC(C)c1nc2c(c(-c3ccc(Cl)c(Cl)c3)n1)CNCC2 [Example 23, 4-(3,4-Dichloro-phenyl)-2-isopropyl-5,6,7,8-tetrahydro-pyrido[4,3-d]pyrimidine hydrochloride]	> 10000	> 10000	500	> 10000
CC(C)c1nc2c(c(-c3ccc(F)c(F)c3)n1)CNCC2 [Example 24, 4-(3,4-Difluoro-phenyl)-2-isopropyl-5,6,7,8-tetrahydro-pyrido[4,3-d]pyrimidine hydrochloride]	> 10000	> 10000	240	> 10000
CC(C)c1nc2c(c(-c3cccc(F)c3)n1)CNCC2 [Example 25, 4-(3-Fluoro-phenyl)-2-isopropyl-5,6,7,8-tetrahydro-pyrido[4,3-d]pyrimidine]	> 10000	> 10000	300	> 10000
CC(C)c1nc2c(c(-c3ccccc3F)n1)CNCC2 [Example 26, 4-(2-Fluoro-phenyl)-2-isopropyl-5,6,7,8-tetrahydro-pyrido[4,3-d]pyrimidine]	> 10000	> 10000	300	> 10000
CC(C)c1nc2c(c(-c3ccc(F)cc3F)n1)CNCC2 [Example 27, 4-(2,4-Difluoro-phenyl)-2-isopropyl-5,6,7,8-tetrahydro-pyrido[4,3-d]pyrimidine]	> 10000	> 10000	60	> 10000
Cc1ccc(-c2nc(C(C)C)nc3c2CNCC3)cc1 [Example 28, 2-Isopropyl-4-p-tolyl-5,6,7,8-tetrahydro-pyrido[4,3-d]pyrimidine]	400	3000	100	> 10000
COc1ccc(-c2nc(C(C)C)nc3c2CNCC3)cc1 [Example 30, 2-Isopropyl-4-(4-methoxy-phenyl)-5,6,7,8-tetrahydro-pyrido[4,3-d]pyrimidine]	1000	2500	800	> 10000
CC(C)c1nc2c(c(-c3ccccc3)n1)CNCC2 [Example 31, 2-Isopropyl-4-phenyl-5,6,7,8-tetrahydro-pyrido[4,3-d]pyrimidine]	2000	> 10000	70	> 10000
CC(C)c1nc2c(c(-c3ccc(C(F)(F)F)cc3)n1)CNCC2 [Example 32, 2-Isopropyl-4-(4-trifluoromethyl-phenyl)-5,6,7,8-tetrahydro-pyrido[4,3-d]pyrimidine]	> 10000	> 10000	2000	> 10000
CC(C)c1nc2c(c(-c3ccccc3Oc3ccccc3)n1)CNCC2 [Example 33, 2-Isopropyl-4-(2-phenoxy-phenyl)-5,6,7,8-tetrahydro-pyrido[4,3-d]pyrimidine]	> 10000	> 10000	> 10000	> 10000
CC(C)Cc1nc2c(c(-c3ccsc3)n1)CNCC2 [Example 34, 2-Isobutyl-4-thiophen-3-yl-5,6,7,8-tetrahydro-pyrido[4,3-d]pyrimidine]	400	1000	150	> 10000
CC(C)Cc1nc2c(c(-c3ccc(F)cc3)n1)CNCC2 [Example 37, 4-(4-Fluoro-phenyl)-2-isobutyl-5,6,7,8-tetrahydro-pyrido[4,3-d]pyrimidine]	400	1000		> 10000
CNCCc1cc(-c2ccc(F)cc2)nc(C(C)(C)C)n1 [Example 166, {2-[2-tert-Butyl-6-(4-fluoro-phenyl)-pyrimidin-4-yl]-ethyl}-methyl-amine]	18	170	11	
